The text below walks through data of patent publication US20030143744A1, “Method for the production of cotton somatic embryos” (priority 2000, published 2003).

Common to all, as to type: cell-based, Cotton (Gossypium hirsutum L.)
Assay [1] concerns embryogenic callus / somatic embryos. As to the kind of experiment: Somatic embryo histodifferentiation on differentiation medium. The procedure:
Following callus initiation, calluses were sub-cultured, every 4-5 weeks, to callus initiation medium or to basal medium without growth regulators, either solidified or liquid, agitated (under orbital shaking at 110 rpm) or to the surface of filter paper (Whatman™ n° 1) bridges, inserted into macrowell plates (34 mm in diameter, well), containing 3-4 ml of liquid medium to induce somatic embryogenesis. Liquid cultures were maintained by subculture at 2 week intervals. Primary calli containing embryogenic clumps were sub-cultured to somatic embryo differentiation media. A culture medium similar to embryogenesis callus induction medium was used, but modified to contain 10 mM glutamine (Price and Smith 1979 (Planta 145: 305-307.), Cousins et al. 1991 Aust. J. Plant Physiol. 18: 481-494.), 5.4 μM NAA, 2.5 μM iP and solidified with 0.2% gelrite. The effect of abscisic acid (ABA, 0.0, 0.19, 0.38, 1.9 μM) on somatic embryo histodifferentiation was tested.

For assay [2], the system named is epidermal strips of Coker line 312. The assay is described as follows: Callus initiation from epidermal strips of Coker line 312. As to conditions: cytokinin at 4.9 μM, medium further supplemented with NAA (10.7 μM); basal region of bract. How it is done:
Following disinfection, bracts were soaked in sterile distilled water, for at least 3 h, to facilitate peeling. Epidermal strips were carefully excised from the lower epidermis, using fine forceps under sterile conditions. The enzymatic treatment of epidermal strips was tested for the removal of all contaminating mesophyll and vascular tissues as follows: strips were immersed for 2-3.5 h, in a filter sterilised solution containing Linsmaier & Skoog salts (1965), Cellulysin (0.2% w/v), Hemicellulase (0.2% w/v), polyvinylpyrrolidone (PVP-40, 0.1% w/v) and pH adjusted to 5.5.
Epidermal fragments (3-10 mm size), with or without enzymatic treatment, were placed in Petri dishes (32 mm in diameter) containing 2 ml semi-solid medium, with the cuticle side either in contact with the medium or upwards.
(§1) A basal medium containing Murashige and Skoog ((1962) Physiol Plant 15: 473-497.) salts, Trolinder & Goodin ((1988a) Plant Cell Tiss Org Cult 12: 31-42.) vitamins and glucose (166.5 mM equivalent to 30 g.l^−1) was used throughout the experiments. For callus initiation, basal medium was supplemented with naphthalene acetic acid (NAA, 2.7, 5.4, 10.7 and 21.5 μM) and isopentenyladenine (iP, 1.3, 2.5 and 4.9 μM). In addition, the effects of thidiazuron (tdz), kinetin (kin) and iP, each at a concentration of 4.9 μM, were tested for their effect on callus morphology and development. Callus initiation was evaluated after 3-6 weeks. Media was used as liquid or solidified (geirite 1.6 g.l^−1 plus 7.9 mM MgCl2). Twenty to thirty epidermal strips were cultured per dish.
The effect of shading of the culture dishes on callus initiation was also evaluated. One or two dishes containing a layer of culture medium (2 ml) were placed on the top of dishes containing the cultures. Dishes were incubated on full light (26.3 μmol. m^−2.s^−1) or under reduced light irradiance, respectively, under shade from 1 dish (21.0 μmol. m^−2.s^−1) or shading from two dishes (15.8 μmol. m^−2.s^−1).

Assay [3] relates to both Coker lines (312 and 315). The assay is described as follows: Callus initiation, growth and morphology by growth regulators. How it is done: as §1
Epidermal strips were excised from the whole bract of Coker line 315 and cultured on medium containing NAA (2.7, 5.4, 10.7 and 21.5 μM) and iP (1.3, 2.5 and 4.9 μM). Two to four independent experiments were carried out and 1300 epidermal strips were used in these studies.
Callus initiation, growth and morphology from both Coker lines (312 and 315) were influenced by the growth regulators in the callus initiation medium. […] In addition, there were no statistical significant differences in callus induction frequency within the remaining range of treatments tested.

As to `CC1=CC(=O)CC(C)(C)[C@@]1(O)/C=C/C(C)=C\C(=O)O` [ABA, abscisic acid], the somatic embryo differentiation result in assay [1] (ABA 0.0 or 1.9 μM) was “less uniform”; in assay [1] (ABA 0.19-0.38 μM, after 3-4 weeks) it was “Synchronised embryo differentiation and improved somatic embryo uniformity”. Take `c1coc(CNc2ncnc3[nH]cnc23)c1` [Kin, kinetin]: in assay [2], the callus induction was determined as 8.6±0.7%. The same measure, in the same setting: next, `O=C(Nc1ccccc1)Nc1cnns1` [Tdz, thidiazuron]: 31.3±4.5%. Regarding `CC(C)=CCNc1ncnc2nc[nH]c12` [iP, isopentenyladenine], in assay [3] (iP 1.2 μM), the “time to similar size of callus” value is 8 weeks. Besides, the “time to macroscopic calluses” value in assay [3] (iP 4.9 μM) is 4-5 weeks. Further, the callus induction in assay [2] stood at 36.3±15.8%.
